Data from patent US20180044343A1, “BICYCLIC IMIDAZOLO DERIVATIVE” (Sumitomo Dainippon Pharma Co., Ltd., priority 2015, published 2018).

Tests used:
[1] = Test for drug transportation to brain in rats; format: in vivo; details: rat; SD rats, oral, one hour after administration; non-binding drug concentration ratio between brain and plasma
Source text: Test for Drug Transportation to Brain in Rats
This test can be used to assess transportation of the compounds of the present invention to the brain. Each compound of the invention was orally administered to 7 week-old SD rats with a 0.5% suspension in methyl cellulose, and each plasma and brain were collected one hour after administration to measure the concentration of each compound in the plasma and the brain with an LC-MS.
Each protein binding ratio of the compounds in the plasma and the brain was measured by the equilibrium dialysis method.
The obtained concentrations and protein binding ratios of the compounds in the plasma and the brain can be applied to the following equation to calculate Kp, uu, brain (i.e., non-binding drug concentration ratio between brain and plasma).
Kp, uu, brain=[Compound concentration in brain×(100−Protein binding ratio in brain (%))/100]/[Compound concentration in plasma×(100−Protein binding ratio in plasma (%))/100]

PDE1C [2] = target: T1, PDE1C (Homo sapiens, UniProt Q14123); assay: In vitro SPA PDE1 inhibition assay (PDE1C); format: biochemical; details: [3H]-cGMP 100 nM
Procedure: (§1) The commercially available Scintillation Proximity Assay (SPA) system (Perkinelmer) was used for PDE1 inhibition assays. SPA Yttrium Silicate beads preferentially binds to non-cyclic GMP compared to cyclic GMP (cGMP) in the presence of zinc sulphate, which enables to measure the amount of enzyme reaction product ([^3H]-GMP) by scintillation counting.
(§2) For PDE1 inhibition assay, 10 μl of the test compounds in 5% dimethyl sulfoxide diluted in SPA assay buffer (1 mM CaCl2, 10 mM MgSO4, 10 mM Tris-HCl, pH 7.4) were placed in a 96-well white microtiter plate, and 20 μl of [^3H]-cGMP solution (100 nM final concentration, Perkinelmer) in SPA assay buffer was added. Assays were initiated by adding 20 μl of PDE (1A3, 1B or 1C) enzyme solution including calmodulin (final concentration 1 μg/ml). After 30 min incubation at 27° C., the reaction was stopped by the addition of 50 μl of a suspension of 10 mg/ml SPA beads in 18 mM ZnSO4. The microtiter plates were settled for 60 min, and then were measured in a TopCount NXT scintillation counter (PerkinElmer). IC50 values were determined from sigmoidal curves by plotting the percentage of PDE activity versus log compound concentration. IC50 was defined as the concentration of the test compounds required to inhibit the cyclic nucleotide hydrolyzing activities of tested PDEs by 50%.

PDE1A3 [3] = target: T2, PDE1A3 (Homo sapiens, UniProt P54750); assay: In vitro SPA PDE1 inhibition assay (PDE1A3); format: biochemical; details: PDE1A3, [3H]-cGMP 100 nM
Procedure: as §1, §2

PDE1B [4] = target: T3, PDE1B (Homo sapiens, UniProt Q01064); assay: In vitro HTRF PDE1 inhibition assay (PDE1B); format: biochemical; details: in vitro PDE1B HTRF Assay; read-out: IC50
Procedure: The Cisbio cGMP HTRF assay kit (Cat no: 62GM2PEC) was utilized. Cyclic GMP was diluted to 200 nM in HTRF assay buffer (1 mM CaCl2, 10 mM MgCl2, 10 mM Tris-HCl, 0.1% BSA, pH 7.4). […] PDE (1A3, 1B or 1C) was diluted to 2× working concentration in HTRF assay buffer with 2 μg/ml Calmodulin, and 10 μl was added to initiate the reaction. The plate was then incubated for 45 minutes at 27° C. d2-Labelled cyclic GMP and anti-cGMP cryptate were diluted in 50 mM phosphate buffer, 0.8 M KF, 1% Triton X100, 0.2% BSA, pH 7.0. Following incubation 10 μl d2-cGMP, then 10 μl anti cGMP cryptate were added to each well and the plate was incubated for 60 minutes at room temperature. The plate was then read on Perkin Elmer EnVision at 2 different FRET readings ex/em 340 nm/665 nm and 340 nm/615 nm.

PDE1B [5] = target: T3, PDE1B; assay: In vitro SPA PDE1 inhibition assay (PDE1B); format: biochemical; details: [3H]-cGMP 100 nM
Procedure: as §1, §2

[6] = Evaluation of bioavailability, PK test in rats; format: in vivo; details: rat; 7 week-old SD rats, intravenous vs oral administration, plasma LC-MS
Procedure: This test can be used to assess pharmacokinetics of the compounds of the present invention. Each compound of the invention was administered to 7 week-old SD rats intravenously with a solution in saline: 0.1N HCl=9:1 or orally with a 0.5% suspension in methyl cellulose, and each blood sample was collected at an appropriate interval as follows:
5, 15, and 30 minutes, and 1, 2, 4, 6, and 24 hours after intravenous administration
15 and 30 minutes, and 1, 2, 4, 6, and 24 hours after oral administration
The plasma was obtained from each blood, and the concentration of each compound in the plasma was measured with an LC-MS to calculate each pharmacokinetic parameter based on the concentration change.

[7] = test system: cognitive dysfunction in PCP-treated rats; assay: Novel object recognition test in rats repeatedly treated with phencyclidine (PCP); format: in vivo; details: rats given PCP 3 mg/kg i.p. twice a day for 10 days; compound 1 or 3 mg/kg orally 60 minutes before test; compared to PCP+vehicle group
Procedure: Since an N-Methyl-D-aspartate receptor antagonist phencyclidine (PCP) has been known to cause schizophrenia-like symptoms including cognitive dysfunction in humans, PCP-treated animals have been widely used as a schizophrenic animal model. Using rats to which PCP was repeatedly administered as a schizophrenic animal model, the improvement in cognitive dysfunction with the compounds of the invention was evaluated in the novel object recognition test. Rats were habituated to the test environment which is a box (50 cm×50 cm×35 cm) with no object inside for 1 hour per day for 3 days. On the test day, rats were again put into the test box with no object inside to habituate themselves for three minutes. The rats were then put into the test box with two identical objects inside and were made to explore inside for three minutes for a training trial. After one minute, they were put into the test box with one of the objects (i.e., the familiar object) that was the same as used in the training trial and another object (i.e., a novel object) inside and were made to explore inside for three minutes for a test trial. Cognitive function was evaluated on the basis of preference for the novel object in the test trial utilizing rats' habit of exploring a novel object longer than a familiar object. Discrimination Index was calculated from the following equation as an index for preference of a novel object.
Discrimination Index=(Time to explore novel object−Time to explore familiar object)/(Time to explore novel object+Time to explore familiar object)

PDE1C [8] = target: T1, PDE1C; assay: In vitro HTRF PDE1 inhibition assay (PDE1C); format: biochemical; details: 100 nM cyclic GMP
Source text: (§3) An exemplary procedure for the in vitro Homogenous Time Resolved Fluorescence assay, which can be used to determine the inhibitory action of compounds of the present invention toward PDE1 or its isoforms, follows.
(§4) The HTRF PDE1 assay utilized the HTRF (Homogenous Time Resolved Fluorescence) technology, which is based on the competition between unlabeled cyclic nucleotide and cyclic nucleotide labeled with XL665 for the binding to cyclic nucleotide-specific antibody labeled with cryptate. The HTRF signal is thus inversely proportional to the concentration of cyclic nucleotide being measured. Since phosphodiesterases break down cyclic nucleotides, the HTRF signal was used to determine PDE activity.
(§5) The Cisbio cGMP HTRF assay kit (Cat no: 62GM2PEC) was utilized. Cyclic GMP was diluted to 200 nM in HTRF assay buffer (1 mM CaCl2, 10 mM MgCl2, 10 mM Tris-HCl, 0.1% BSA, pH 7.4). 10 μl of compound or DMSO was diluted in 200 nM cyclic GMP solution and added to wells of a 96 well white plate to give 100 nM cyclic GMP in 1% DMSO final concentration. PDE (1A3, 1B or 1C) was diluted to 2× working concentration in HTRF assay buffer with 2 μg/ml Calmodulin, and 10 μl was added to initiate the reaction. The plate was then incubated for 45 minutes at 27° C. d2-Labelled cyclic GMP and anti-cGMP cryptate were diluted in 50 mM phosphate buffer, 0.8 M KF, 1% Triton X100, 0.2% BSA, pH 7.0. Following incubation 10 μl d2-cGMP, then 10 μl anti cGMP cryptate were added to each well and the plate was incubated for 60 minutes at room temperature. The plate was then read on Perkin Elmer EnVision at 2 different FRET readings ex/em 340 nm/665 nm and 340 nm/615 nm.
(§6) Compounds having an IC50 of <1 μM are denoted as +++. Compounds having an IC50 of 1-10 μM are denoted as ++. Compounds having an IC50 of 10-100 μM are denoted as +.

PDE1A3 [9] = target: T2, PDE1A3; assay: In vitro HTRF PDE1 inhibition assay (PDE1A3); format: biochemical; details: PDE1A3, 100 nM cyclic GMP
Source text: as §3, §4, §5, §6

T3 sequence (Q01064 whole entry): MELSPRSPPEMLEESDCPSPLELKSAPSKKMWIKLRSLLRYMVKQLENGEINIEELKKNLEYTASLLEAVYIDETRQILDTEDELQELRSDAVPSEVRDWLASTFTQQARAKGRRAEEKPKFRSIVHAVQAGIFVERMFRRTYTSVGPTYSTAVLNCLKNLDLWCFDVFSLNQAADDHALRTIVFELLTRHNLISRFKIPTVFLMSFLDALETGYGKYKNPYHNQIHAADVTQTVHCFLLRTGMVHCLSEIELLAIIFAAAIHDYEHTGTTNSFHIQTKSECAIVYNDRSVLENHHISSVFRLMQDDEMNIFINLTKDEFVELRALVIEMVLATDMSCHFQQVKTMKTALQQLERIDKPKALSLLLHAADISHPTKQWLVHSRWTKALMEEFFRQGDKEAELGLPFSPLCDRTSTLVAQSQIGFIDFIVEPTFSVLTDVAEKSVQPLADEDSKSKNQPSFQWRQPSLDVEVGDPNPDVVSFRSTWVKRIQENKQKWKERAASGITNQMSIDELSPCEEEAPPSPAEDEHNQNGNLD

Row | SMILES | Kp uu at 1 h [1] | IC50 (PDE1C [2]) | IC50 (PDE1A3 [3]) | IC50 (PDE1B [4]) | IC50 (PDE1B [5]) | bioavailability [6] | Discrimination Index in novel object recognition test [7] | IC50 (PDE1C [8]) | IC50 (PDE1A3 [9])
1 | CCn1c(OCC2CCC(F)(F)CC2)nn2c(C3CCOCC3)ncc2c1=O [Example 1] | 0.69 | 0.665 µM | 0.22 µM | < 1000 nM | 0.088 µM | 23.3% | significant increase | < 1 µM | < 1 µM
2 | CCn1c(OC[C@H]2CC[C@H](OC)CC2)nn2c(C3CCOCC3)ncc2c1=O [Example 91] | – | 0.199 µM | 0.074 µM | < 1000 nM | 0.028 µM | – | – | < 1 µM | < 1 µM
3 | COc1nn2c(C3CCOCC3)ncc2c(=O)n1C[C@H]1CC[C@@H](OC)CC1 [Example 101] | – | 0.192 µM | 0.121 µM | < 1000 nM | 0.096 µM | – | – | < 1 µM | < 1 µM
4 | COc1nn2c(C3CCOCC3)ncc2c(=O)n1Cc1ccc(Cl)cc1 [Example 109, 3-(4-chlorobenzyl)-2-methoxy-7-(tetrahydro-2H-pyran-4-yl)imidazo[5,1-f][1,2,4]triazin-4(3H)-one] | 1.02 | 0.057 µM | 0.023 µM | < 1000 nM | 0.028 µM | – | – | < 1 µM | < 1 µM
5 | COc1nn2c(C3CCOCC3)ncc2c(=O)n1CC1CCC(F)(F)CC1 [Example 115, 3-[(4,4-difluorocyclohexyl)methyl]-2-methoxy-7-(tetrahydro-2H-pyran-4-yl)imidazo[5,1-][1,2,4]triazin-4(3H)-one] | 0.96 | 0.065 µM | 0.034 µM | < 1000 nM | 0.033 µM | 13.4% | significant increase | < 1 µM | < 1 µM
6 | Cn1c(OCc2ccc(F)cc2)nn2c(C3CCOCC3)nc(F)c2c1=O [Example 116, 5-Fluoro-2-[(4-fluorobenzyl)oxy]-3-methyl-7-(tetrahydro-2H-pyran-4-yl)imidazo[5,1-f][1,2,4]triazin-4(3H)-one] | – | 0.771 µM | 0.207 µM | < 1000 nM | 0.084 µM | – | – | < 1 µM | < 1 µM
7 | CNc1nn2c(C3CCOCC3)ncc2c(=O)n1Cc1ccccc1 [Example 200] | – | 0.024 µM | 0.133 µM | < 1000 nM | 0.109 µM | – | – | < 1 µM | < 1 µM
8 | Cc1nn2c(C3CCOCC3)ncc2c(=O)n1Cc1ccccc1 [Example 238, 3-Benzyl-2-methyl-7-(tetrahydro-2H-pyran-4-yl)imidazo[5,1-f][1,2,4]triazin-4(3H)-one] | – | 0.027 µM | 0.137 µM | < 1000 nM | 0.145 µM | – | – | < 1 µM | < 1 µM
9 | CCc1nn2c(C3CCOCC3)ncc2c(=O)n1CC1CCC(F)(F)CC1 [Example 239, 3-[(4,4-Difluorocyclohexyl)methyl]-2-ethyl-7-(tetrahydro-2H-pyran-4-yl)imidazo[5,1-f][1,2,4]triazin-4(3H)-one] | – | 0.125 µM | 0.065 µM | < 1000 nM | 0.079 µM | – | – | < 1 µM | < 1 µM
10 | CCO[C@H]1CC[C@H](COc2nn3c(C4CCOCC4)ncc3c(=O)n2C)CC1 [Example 246, 2-[(trans-4-ethoxycyclohexyl)methoxy]-3-methyl-7-(tetrahydro-2H-pyran-4-yl)imidazo[5,1-][1,2,4]triazin-4(3H)-one] | 0.26 | 0.788 µM | 0.289 µM | < 1000 nM | 0.064 µM | 51.6% | – | < 1 µM | < 1 µM
11 | CCOC[C@H]1CC[C@H](Oc2nn3c(C4CCOCC4)ncc3c(=O)n2C)CC1 [Example 256, 2-{[trans-4-(ethoxymethyl)cyclohexyl]oxy}-3-methyl-7-(tetrahydro-2H-pyran-4-yl)-imidazo-[5,1-][1,2,4]triazin-4(3H)-one] | – | – | – | < 1000 nM | – | 14.3% | – | < 1 µM | < 1 µM
12 | CO[C@H]1CC[C@@H](Oc2nn3c(C4CCOCC4)ncc3c(=O)n2C)CC1 [Example 312] | – | – | – | < 1000 nM | – | – | – | < 1 µM | < 1 µM
13 | CCn1c(O[C@H]2CC[C@@H](OC)CC2)nn2c(C3CCOCC3)ncc2c1=O [Example 313] | – | – | – | < 1000 nM | – | – | – | < 1 µM | < 1 µM
14 | CCO[C@H]1CC[C@H](Oc2nn3c(C4CCOCC4)ncc3c(=O)n2CC)CC1 [Example 315] | – | – | – | < 1000 nM | – | – | – | < 1 µM | < 1 µM
15 | CCn1c(O[C@H]2CC[C@H](COC)CC2)nn2c(C3CCOCC3)ncc2c1=O [Example 317, 3-ethyl-2-{[trans-4-(methoxymethyl)cyclohexyl]oxy}-7-(tetrahydro-2H-pyran-4-yl)-imidazo[5,1-][1,2,4]triazin-4(3H)-one] | – | 0.194 µM | 0.042 µM | < 1000 nM | 0.027 µM | – | – | < 1 µM | < 1 µM
16 | COC[C@H]1CC[C@@H](Oc2nn3c(C4CCOCC4)ncc3c(=O)n2C)CC1 [Example 318] | – | – | – | < 1000 nM | – | – | – | < 1 µM | < 1 µM
